This is an account of results in US10023591B2, “Heterocyclic derivatives and use thereof” (C&C RESEARCH LABORATORIES, priority 2014, dated 2018).

The subject of one test is STAT3. Description: STAT3 reporter gene assay (luciferase), LNCaP stable cell line pSTAT3-TA-luc, IL-6 stimulation. The class given is cell-based, human. Particulars: Homo sapiens. As for the experimental part: 1-1) Experiment on the Inhibition of STAT3 Activity
A human prostate cancer cell line (LNCaP stable cell line; plasmid pSTAT3-TA-luc), which contains a stably operating STAT3 promoter, was cultured in RPMI1640 medium (Cat No. 11875, Life Technologies) containing 10% fetal bovine serum (FBS) (Cat No. SH30396, Thermo Scientific) and 150 μg/mL G-418 solution (Cat No. 04 727 894 001, Roche). The reporter gene assay using LNCaP stable cell line was performed in RPMI1640 medium containing 3% DCC-FBS without G-418 solution. LNCaP stable cells were plated in two (2) white 96-well plates with 30,000 cells/50 μL in each well. The cells were cultured at 37° C., under 5% CO2 for 24 hours, and then treated with the compounds listed in Examples which were diluted in various concentrations. Subsequently, IL-6 was added to each well with a final concentration of 10 ng/mL. Upon completion of the treatment with the compounds and IL-6, the cells were cultured at 37° C., under 5% CO2 for 24 hours. The plates were observed under microscope and drug precipitation and particular findings were investigated and recorded.
(§1) The luciferase assay and the cell viability assay were performed respectively with one of the two plates. For the luciferase assay, the liquid media in the 96-well plate was removed, and then, 20 μL, of passive cell lysis buffer was added to each well. After shaking the plate for 30 minutes, luciferase activities of each well were measured in a PHERAstar™ microplate reader (BMG LABTECH) using a luciferase assay system (Cat No. E1501, Promega). For the cell viability assay, the 96-well plate was placed at room temperature for 30 minutes, added with 20 μL/well of CellTiter-Glo solution (Cat No. G7573, Promega), and shaken for 10 minutes in order to measure cytotoxicity caused by the compounds listed in Examples with a PHERAstar™ microplate reader (BMG LABTECH). Wells without 0.1% DMSO and stimulation were used as a negative control and wells with 0.1% DMSO and stimulation were used as a positive control.
(§2) The results of evaluation on the inhibitory effect of the compounds listed in the Examples on the dimerization of STAT3 and STAT1 obtained via the STAT3 and STAT1 reporter gene assays are shown in Table 9 below.
(In general: Reporter assays use an easily measured gene product as a stand-in for the process of interest.)

Test [1] deals with NCI-N87 stomach cancer cell line. Description: Cell growth inhibition assay, NCI-N87 (CellTiter-Glo). The class given is cell-based. Particulars: Homo sapiens; NCI-N87, 5,000 cells/well, 96 hours. As for the experimental part: The inhibitory effects of the compounds of the present invention against the growth of cancer cells were evaluated as shown below. The cancer cell lines including prostate cancer cell lines (LNCaP, DU-145), stomach cancer cell line (NCI-N87), and breast cancer cell lines (MDA-MB-468) were cultured under the protocol provided by each supplier. A medium supplemented with 10 ng/mL of IL-6 was used for LNCaP, a prostate cancer cell line, when treated with a drug. Each type of cells to be used in experiments was sub-cultured in a 96-well plate by counting the exact number of cells using Tali™ Image-based Cytometer (Life Technologies). In a 96-well plate, DU-145 was employed with 3,000 cells/well; NCI-N87 was employed with 5,000 cells/well; and LNCaP and MDA-MB-468 were employed with 10,000 cells/well. The cells were treated with the compounds listed in Examples which were diluted in various concentrations. Upon completion of the compounds treatment, LNCaP, DU-145, NCI-N87 cells were cultured at 37° C. under 5% CO2 for 96 hours, and MDA-MB-468 cells were cultured at 37° C. in air for 96 hours. Subsequently, the cells were observed under microscope and drug precipitation and particular findings were investigated and recorded. And then, the 96-well plate was placed at room temperature for 30 minutes, added with 20 pt/well of CellTiter-Glo solution (Cat No. G7573, Promega) and shaken for 10 minutes, followed by being subjected to the measurement using PHERAstar™ microplate reader (BMG LABTECH) according to the supplier's general luminometer protocol. Wells where only culture liquid added without cell plating were used as a negative control, whereas wells where culture liquid containing 0.1% DMSO instead of the compounds listed in Examples were used as a positive control.
Background: In ATP-based viability assays light output follows the ATP content of the culture.

Another test concerns STAT1. Description: STAT1 reporter gene assay (luciferase), U2OS stable cell line pGL4-STAT1-TA-luc, IFN-γ stimulation. The class given is cell-based, human. The conditions noted are these: Homo sapiens, IFN-γ 50 ng/mL, 8 hours, read-out: IC50 (μM) pSTAT1. As for the experimental part:
1-2) Experiment on the Inhibition of STAT1 Activity
A human osteosarcoma cell line (U2OS stable cell line; pGL4-STAT1-TA-luc), which contains a stably operating STAT1 promoter, was cultured in McCoy 5′A medium (Cat No. 16600, Life Technologies) containing 10% FBS (Cat No. SH30396, Thermo Scientific) and 1000 μg/mL G418 solution (Cat No. 04 727 894 001, Roche). The reporter gene assay using U2OS stable cell line was performed in McCoy 5′A medium containing 10% FBS without G-418 solution. U2OS stable cells were plated in two (2) white 96-well plates with 25,000 cells/50 pt in each well. The cells were cultured at 37° C., under 5% CO2 for 24 hours, and then treated with the compounds listed in Examples which were diluted in various concentrations. Subsequently, IFN-γ was added to each well with a final concentration of 50 ng/mL. Upon completion of the treatment with the compounds and IFN-γ, the cells were cultured at 37° C., under 5% CO2 for 8 hours. The plates were observed under microscope and drug precipitation and particular findings were investigated and recorded.
as §1, with “of” for “of the”, “μL” for “μL,”
as §2

SMILES strings stand for the structures.

By IC50 is commonly meant the concentration that inhibits the measured activity by half. `CC(C)COc1cc(OC(F)(F)F)cc(C(C)(C)c2cc(Cl)cc(NC(=O)c3cc4cc(C(C)(C)S(C)(=O)=O)ccc4s3)c2)c1` [Example 11, N-(3-chloro-5-(2-(3-isobutoxy-5-(trifluoromethoxy)phenyl)propan-2-yl)phenyl)-5-(2-(methylsulfonyl)propan-2-yl)benzo[b]thiophene-2-carboxamide]: the IC50 in the test with STAT3 is 0.0021 µM; in test [1], 0.011 µM; with STAT1, > 50 µM.

Take `COc1cc(Cl)cc(Oc2cc(NC(=O)c3cc4cc(C(C)(C)S(C)(=O)=O)ccc4s3)cc(Cl)n2)c1` [Example 70, N-(2-chloro-6-(3-chloro-5-methoxyphenoxy)pyridin-4-yl)-5-(2-(methylsulfonyl)propan-2-yl)benzo[b]thiophene-2-carboxamide]: the half-maximal inhibitory concentration (IC50) in the test on STAT3 is 0.024 µM; in test [1], 0.057 µM; with STAT1 it was > 50 µM.

`CC(C)(c1cc(Cl)cc(NC(=O)c2cc3cc(C(C)(C)S(C)(=O)=O)ccc3s2)c1)c1cc(OCC(F)(F)F)cc(OC(F)(F)F)c1` [Example 12, N-(3-chloro-5-(2-(3-(2,2,2-trifluoroethoxy)-5-(trifluoromethoxy)phenyl)propan-2-yl)phenyl)-5-(2-(methylsulfonyl)propan-2-yl)benzo[b]thiophene-2-carboxamide]: the IC50 was 0.002 µM in the test with STAT3, 0.025 µM in test [1] and > 50 µM in the test with STAT1.

As to `CC(C)(c1ccc2sc(C(=O)Nc3cc(F)nc(Oc4ccc(Cl)cc4)c3)cc2c1)S(C)(=O)=O` [Example 77, N-(2-(4-chlorophenoxy)-6-fluoropyridin-4-yl)-5-(2-(methylsulfonyl)propan-2-yl)benzo[b]thiophene-2-carboxamide], the IC50 was 0.1 µM with STAT3, 0.052 µM in test [1] and > 50 µM in the test on STAT1.

On to `CC#CCOc1cc(OC(F)(F)F)cc(C(C)(C)c2cc(Cl)cc(NC(=O)c3cc4cc(C(C)(C)S(C)(=O)=O)ccc4s3)c2)c1` [Example 10, N-(3-(2-(3-(but-2-yn-1-yloxy)-5-(trifluoromethoxy)phenyl)propan-2-yl)-5-chlorophenyl)-5-(2-(methylsulfonyl)propan-2-yl)benzo[b]thiophene-2-carboxamide], for which the values for the IC50 (in the test with STAT3; in test [1]; with STAT1) were 0.018 µM, 0.01 µM and > 50 µM, respectively.

With `CCN1CCC2(CCN(c3cc(NC(=O)c4cc5cc(C(C)(C)S(C)(=O)=O)ccc5s4)cc(Cl)n3)C2)C1` (stereo not drawn) [Example 107, N-(2-chloro-6-(7-ethyl-2,7-diazaspiro[4.4]nonan-2-yl)pyridin-4-yl)-5-(2-(methylsulfonyl)propan-2-yl)benzo[b]thiophene-2-carboxamide], the IC50 with STAT3 is > 10 µM; in test [1], 5.5 µM; in the test with STAT1 it was 33.5 µM.

Consider `CC(C)(c1ccc2sc(C(=O)Nc3cc(Cl)nc(N4CCC5CCCCC5C4)c3)cc2c1)S(C)(=O)=O` (stereo not drawn) [Example 108, N-(2-chloro-6-(octahydroisoquinolin-2(1H)-yl)pyridin-4-yl)-5-(2-(methylsulfonyl)propan-2-yl)benzo[b]thiophene-2-carboxamide], for which the IC50 in the test on STAT3 was 0.085 µM; in test [1], 0.13 µM; in the test on STAT1, > 50 µM.

As to `CC(C)(c1ccc2sc(C(=O)N3CCOc4c(Cl)cc(Oc5ccc(Cl)cc5)cc43)cc2c1)S(C)(=O)=O` [Example 96, (8-chloro-6-(4-chlorophenoxy)-2,3-dihydro-4H-benzo[b][1,4]oxazin-4-yl)(5-(2-(methylsulfonyl)propan-2-yl)benzo[b]thiophen-2-yl)methanone], the IC50 in the test with STAT3 was 0.19 µM; in test [1], 1.5 µM; in the test with STAT1, > 50 µM.

Take `CC(C)(c1ccc2sc(C(=N)Nc3cc(Cl)cc(Oc4ccc(Cl)cc4)c3)cc2c1)S(C)(=O)=O` [Example 103, N-(3-chloro-5-(4-chlorophenoxy)phenyl)-5-(2-(methylsulfonyl)propan-2-yl)benzo[b]thiophene-2-carboximidamide 2,2,2-trifluoroacetate]: the IC50 with STAT3 is 0.18 µM; in test [1], 1.3 µM; with STAT1, > 50 µM.

As to `Cc1cc(Oc2cc(NC(=O)c3cc4cc(C(C)(C)S(C)(=O)=O)ccc4s3)cc(Cl)n2)cs1` [Example 114, N-(2-chloro-6-((5-methylthiophen-3-yl)oxy)pyridin-4-yl)-5-(2-(methylsulfonyl)propan-2-yl)benzo[b]thiophene-2-carboxamide], the IC50 with STAT3 is 0.063 µM; in test [1], 0.13 µM; in the test with STAT1, > 50 µM.

Regarding `Cc1noc(C)c1Oc1cc(NC(=O)c2cc3cc(C(C)(C)S(C)(=O)=O)ccc3s2)cc(Cl)n1` [Example 113, N-(2-chloro-6-((3,5-dimethylisoxazol-4-yl)oxy)pyridin-4-yl)-5-(2-(methylsulfonyl)propan-2-yl)benzo[b]thiophene-2-carboxamide], the IC50 is 0.18 µM in the test on STAT3, 0.27 µM in test [1] and > 50 µM in the test on STAT1.

With `Cc1nn(C)c(C)c1Oc1cc(NC(=O)c2cc3cc(C(C)(C)S(C)(=O)=O)ccc3s2)cc(Cl)n1` [Example 111, N-(2-chloro-6-((1,3,5-trimethyl-1H-pyrazol-4-yl)oxy)pyridin-4-yl)-5-(2-(methylsulfonyl)propan-2-yl)benzo[b]thiophene-2-carboxamide], the results for the IC50 (in the test on STAT3; in test [1]; in the test with STAT1) were 1.3 µM, 2.4 µM and > 50 µM, respectively.

As for `CC(C)(c1ccc2sc(C(=O)Nc3cc(Br)nc(Oc4ccc(Cl)cc4)c3)cc2c1)S(C)(=O)=O` [Example 69, N-(2-bromo-6-(4-chlorophenoxy)pyridin-4-yl)-5-(2-(methylsulfonyl)propan-2-yl)benzo[b]thiophene-2-carboxamide], the half-inhibitory concentration (IC50) with STAT3 is 0.01 µM; in test [1], 0.015 µM; in the test with STAT1, > 50 µM.

For the compound `CC(C)(c1ccc2sc(C(=O)Nc3cc(Br)cc(Oc4ccc(Cl)cc4)c3)cc2c1)S(C)(=O)=O` [Example 39, N-(3-bromo-5-(4-chlorophenoxy)phenyl)-5-(2-(methylsulfonyl)propan-2-yl)benzo[b]thiophene-2-carboxamide], the IC50 is 0.0089 µM with STAT3, 0.031 µM in test [1] and > 50 µM in the test on STAT1.
